Reference: patent publication US10681909B2, “Herbicidal triazoles” (FMC Corporation, priority 2014, dated 2020)

How the values were obtained:
pigweed = test: Test A preemergence; type: in vivo, Amaranthus retroflexus; conditions: Amaranthus retroflexus, pre-emergence, 240 h, 0 to 100 scale (0 no effect, 100 complete control), read-out: Plant response rating, Pigweed; for pest or weed control at 125 g/ha: 125 g ai/ha; for pest or weed control at 500 g/ha: 500 g ai/ha, approx. 10 d
How it was run: (§1)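 Loam/sand soil mix; compound in non-phytotoxic solvent + surfactant. Pre: directed soil spray right after planting seed. Post: potted plants 2–10 cm, 1–2 leaf stage, sprayed with same formulation.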

sedge, umbrella = test: Test B flooded paddy test; type: in vivo, Cyperus difformis; conditions: Cyperus difformis, 360 h, 125 g ai/ha, applied to paddy water at 2-leaf stage, visual rating after 13 to 15 d, scale 0 (no effect) to 100 (complete control), read-out: Plant response rating, Sedge, Umbrella, Flood
How it was run: (§2)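 Pots were flooded to 3 cm above the soil at treatment, and compounds were applied directly into the paddy water. That depth was held throughout. After 13 to 15 d in a greenhouse, plants were rated visually against untreated controls.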

corn = test: Test A postemergence; type: in vivo, Zea mays; conditions: Zea mays, post-emergence, 240 h, 0 to 100 scale (0 no effect, 100 complete control), approx. 10 d; for Corn plant response rating (crop injury, 0 = no effect, 100 = complete kill) at 125 g/ha: 125 g ai/ha; for Corn plant response rating (crop injury, 0 = no effect, 100 = complete kill) at 500 g/ha: 500 g ai/ha
How it was run: as §1

ducksalad = test: Test B flooded paddy test; type: in vivo, Heteranthera limosa; conditions: Heteranthera limosa, 360 h, 125 g ai/ha, applied to paddy water at 2-leaf stage, visual rating after 13 to 15 d, scale 0 (no effect) to 100 (complete control), read-out: Plant response rating, Ducksalad, Flood
How it was run: as §2

rice = test: Test B flooded paddy test; type: in vivo, Oryza sativa; conditions: Oryza sativa, 360 h, 125 g ai/ha, applied to paddy water at 2-leaf stage, visual rating after 13 to 15 d, scale 0 (no effect) to 100 (complete control), read-out: Plant response rating, Rice, Flood
How it was run: as §2

barnyardgrass = test: Test A postemergence; type: in vivo, Echinochloa crus-galli; conditions: Echinochloa crus-galli, post-emergence, 240 h, 0 to 100 scale (0 no effect, 100 complete control), approx. 10 d, read-out: Plant response rating, Barnyardgrass; for pest or weed control at 125 g/ha: 125 g ai/ha; for pest or weed control at 500 g/ha: 500 g ai/ha
How it was run: as §1

foxtail, giant = test: Test A preemergence; type: in vivo, Setaria faberii; conditions: Setaria faberi, pre-emergence, 240 h, 0 to 100 scale (0 no effect, 100 complete control), read-out: Plant response rating, Foxtail, Giant; for pest or weed control at 125 g/ha: 125 g ai/ha; for pest or weed control at 500 g/ha: 500 g ai/ha, approx. 10 d
How it was run: as §1

morningglory = test: Test C postemergence; type: in vivo, Ipomoea coccinea
From the text: (§3) Seeds of plant species selected from blackgrass (Alopecurus myosuroides), ryegrass, Italian (Italian ryegrass, Lolium multiflorum), wheat (winter wheat, Triticum aestivum), galium (catchweed bedstraw, Galium aparine), corn (Zea mays), crabgrass, large (large crabgrass, Digitaria sanguinalis), foxtail, giant, (giant foxtail, Setaria faberii), johnsongrass (Sorghum halepense), lambsquarters (Chenopodium album), morningglory (Ipomoea coccinea), nutsedge, yellow (yellow nutsedge, Cyperus esculentus), pigweed (Amaranthus retroflexus), ragweed (common ragweed, Ambrosia elatior), soybean (Glycine max), barnyardgrass (Echinochloa crus-galli), oilseed rape (Brassica napus), waterhemp (common waterhemp, Amaranthus rudis), and velvetleaf (Abutilon theophrasti) were planted into a blend of loam soil and sand and treated preemergence with test chemicals formulated in a non-phytotoxic solvent mixture which included a surfactant. At the same time, plants selected from these crop and weed species and also chickweed (common chickweed, Stellaria media), oat, wild (wild oat, Avena fatua), and kochia (Kochia scoparia), were planted in pots containing Sunshine Redi-Earth® planting medium comprising spaghnum peat moss, vermiculite, starter nutrients and dolomitic limestone and treated with postemergence applications of test chemicals formulated in the same manner. Plants ranged in height from 2 to 18 cm (1- to 4-leaf stage) for postemergence treatments. […] A dash (-) response means no test result.

chickweed = test: Test C postemergence; type: in vivo, Stellaria media
From the text: as §3

ryegrass, Italian = test: Test C postemergence; type: in vivo, Lolium multiflorum
From the text: as §3

oat, wild = test: Test C postemergence; type: in vivo, Avena fatua
From the text: as §3

soybean = test: Test C postemergence; type: in vivo, Glycine max
From the text: as §3

wheat (winter wheat) = test: Test C postemergence; type: in vivo, Triticum aestivum
From the text: as §3

nutsedge, yellow = test: Test C postemergence; type: in vivo, Cyperus esculentus
From the text: as §3

For CCCn1nc(-c2ccc(F)cc2)nc1Cc1ccnc(C(F)(F)F)c1 [Compound 17, 4-[[3-(4-fluorophenyl)-1-propyl-1H-1,2,4-triazol-5-yl]methyl]-2-(trifluoromethyl)pyridine], the pest or weed control at 125 g/ha (pigweed) was 100%, the pest or weed control at 500 g/ha (pigweed) was 100% and the pest or weed control at 125 g/ha (sedge, umbrella) was 80%. It also gave a Corn plant response rating (crop injury, 0 = no effect, 100 = complete kill) at 125 g/ha (corn) of 50%, a Corn plant response rating (crop injury, 0 = no effect, 100 = complete kill) at 500 g/ha (corn) of 70% and a pest or weed control at 125 g/ha (ducksalad) of 70%. It also gave a plant injury at 125 g/ha (rice) of 15%, a pest or weed control at 125 g/ha (barnyardgrass) of 70% and a pest or weed control at 500 g/ha (barnyardgrass) of 90%. The pest or weed control at 125 g/ha (foxtail, giant) was 100% and the pest or weed control at 500 g/ha (foxtail, giant) was 100%.
With CCn1nc(-c2ccc(F)cc2)nc1C(=O)c1ccnc(C(F)(F)F)c1 [Compound 19, [1-ethyl-3-(4-fluorophenyl)-1H-1,2,4-triazol-5-yl][2-(trifluoromethyl)-4-pyridinyl]methanone] the pest or weed control at 125 g/ha (pigweed) was 0%, the pest or weed control at 500 g/ha (pigweed) was 0% and the pest or weed control at 125 g/ha (sedge, umbrella) was 0%. It also gave a Corn plant response rating (crop injury, 0 = no effect, 100 = complete kill) at 125 g/ha (corn) of 0%, a Corn plant response rating (crop injury, 0 = no effect, 100 = complete kill) at 500 g/ha (corn) of 20% and a pest or weed control at 125 g/ha (ducksalad) of 0%. It also gave a plant injury at 125 g/ha (rice) of 0%, a pest or weed control at 125 g/ha (barnyardgrass) of 0% and a pest or weed control at 500 g/ha (barnyardgrass) of 0%. For the same compound, the pest or weed control at 125 g/ha (foxtail, giant) was 0% and the pest or weed control at 500 g/ha (foxtail, giant) was 50%.
CS(=O)(=O)c1nc(-c2ccc(F)cc2)nn1Cc1ccnc(C(F)(F)F)c1 [Compound 29, 4-[[3-(4-fluorophenyl)-5-(methylsulfonyl)-1H-1,2,4-triazole-1-yl]methyl]-2-(trifluoromethyl)pyridine] was tested, and the pest or weed control at 125 g/ha (pigweed) was 0%, the pest or weed control at 500 g/ha (pigweed) was 0% and the pest or weed control at 125 g/ha (sedge, umbrella) was 0%. It also gave a Corn plant response rating (crop injury, 0 = no effect, 100 = complete kill) at 125 g/ha (corn) of 0%, a Corn plant response rating (crop injury, 0 = no effect, 100 = complete kill) at 500 g/ha (corn) of 0% and a pest or weed control at 125 g/ha (ducksalad) of 0%. It also gave a plant injury at 125 g/ha (rice) of 0%, a pest or weed control at 125 g/ha (barnyardgrass) of 0% and a pest or weed control at 500 g/ha (barnyardgrass) of 0%. The pest or weed control at 125 g/ha (foxtail, giant) was 0% and the pest or weed control at 500 g/ha (foxtail, giant) was 0%.
With CCOc1nc(-c2ccc(C(F)(F)F)cc2)nn1Cc1ccnc(C(F)(F)F)c1 [Compound 35, 4-[[5-ethoxy-3-[4-(trifluoromethyl)phenyl]-1H-1,2,4-triazole-1-yl]methyl]-2-(trifluoromethyl)pyridine] the pest or weed control at 31 g/ha (pigweed; 31 g ai/ha) was 100%, the pest or weed control at 125 g/ha (pigweed) was 100% and the Corn plant response rating (crop injury, 0 = no effect, 100 = complete kill) at 31 g/ha (corn; 31 g ai/ha) was 40%. The Corn plant response rating (crop injury, 0 = no effect, 100 = complete kill) at 125 g/ha (corn) was 80%, the “Plant response rating (scale of 0 to 100 where 0 is no effect and 100 is complete control)” value (morningglory; 31 g ai/ha) was 70 and the “Plant response rating (scale of 0 to 100 where 0 is no effect and 100 is complete control)” value (morningglory; 62 g ai/ha) was 95. The “Plant response rating (scale of 0 to 100 where 0 is no effect and 100 is complete control)” value (morningglory; 125 g ai/ha) was 85, the “Plant response rating (scale of 0 to 100 where 0 is no effect and 100 is complete control)” value (morningglory; 250 g ai/ha) was 95 and the “Plant response rating (scale of 0 to 100 where 0 is no effect and 100 is complete control)” value (chickweed; 31 g ai/ha) was 100. For the same compound, the “Plant response rating (scale of 0 to 100 where 0 is no effect and 100 is complete control)” value (chickweed; 62 g ai/ha) was 100, the “Plant response rating (scale of 0 to 100 where 0 is no effect and 100 is complete control)” value (chickweed; 125 g ai/ha) was 100 and the “Plant response rating (scale of 0 to 100 where 0 is no effect and 100 is complete control)” value (chickweed; 250 g ai/ha) was 100. For the same compound, the “Plant response rating (scale of 0 to 100 where 0 is no effect and 100 is complete control)” value (ryegrass, Italian; 31 g ai/ha) was 30, the “Plant response rating (scale of 0 to 100 where 0 is no effect and 100 is complete control)” value (ryegrass, Italian; 62 g ai/ha) was 55 and the “Plant response rating (scale of 0 to 100 where 0 is no effect and 100 is complete control)” value (ryegrass, Italian; 125 g ai/ha) was 60. The “Plant response rating (scale of 0 to 100 where 0 is no effect and 100 is complete control)” value (ryegrass, Italian; 250 g ai/ha) was 80, the pest or weed control at 31 g/ha (barnyardgrass; 31 g ai/ha) was 80% and the pest or weed control at 125 g/ha (barnyardgrass) was 90%. For the same compound, the “Plant response rating (scale of 0 to 100 where 0 is no effect and 100 is complete control)” value (oat, wild; 31 g ai/ha) was 45, the “Plant response rating (scale of 0 to 100 where 0 is no effect and 100 is complete control)” value (oat, wild; 62 g ai/ha) was 50 and the “Plant response rating (scale of 0 to 100 where 0 is no effect and 100 is complete control)” value (oat, wild; 125 g ai/ha) was 85. The “Plant response rating (scale of 0 to 100 where 0 is no effect and 100 is complete control)” value (oat, wild; 250 g ai/ha) was 90, the pest or weed control at 31 g/ha (foxtail, giant; 31 g ai/ha) was 100% and the pest or weed control at 125 g/ha (foxtail, giant) was 100%. The “Plant response rating (scale of 0 to 100 where 0 is no effect and 100 is complete control)” value (soybean; 31 g ai/ha) was 55, the “Plant response rating (scale of 0 to 100 where 0 is no effect and 100 is complete control)” value (soybean; 62 g ai/ha) was 65 and the “Plant response rating (scale of 0 to 100 where 0 is no effect and 100 is complete control)” value (soybean; 125 g ai/ha) was 65. For the same compound, the “Plant response rating (scale of 0 to 100 where 0 is no effect and 100 is complete control)” value (soybean; 250 g ai/ha) was 70, the “Plant response rating (scale of 0 to 100 where 0 is no effect and 100 is complete control)” value (wheat (winter wheat); 31 g ai/ha) was 15 and the “Plant response rating (scale of 0 to 100 where 0 is no effect and 100 is complete control)” value (wheat (winter wheat); 62 g ai/ha) was 20. The “Plant response rating (scale of 0 to 100 where 0 is no effect and 100 is complete control)” value (wheat (winter wheat); 125 g ai/ha) was 35, the “Plant response rating (scale of 0 to 100 where 0 is no effect and 100 is complete control)” value (wheat (winter wheat); 250 g ai/ha) was 30 and the “Plant response rating (scale of 0 to 100 where 0 is no effect and 100 is complete control)” value (nutsedge, yellow; 31 g ai/ha) was 20. For the same compound, the “Plant response rating (scale of 0 to 100 where 0 is no effect and 100 is complete control)” value (nutsedge, yellow; 62 g ai/ha) was 10, the “Plant response rating (scale of 0 to 100 where 0 is no effect and 100 is complete control)” value (nutsedge, yellow; 125 g ai/ha) was 30 and the “Plant response rating (scale of 0 to 100 where 0 is no effect and 100 is complete control)” value (nutsedge, yellow; 250 g ai/ha) was 35.
